Measurements reported in patent US9108903B2, “Amides as modulators of sodium channels” (VERTEX PHARMACEUTICALS INCORPORATED, priority 2013, dated 2015).

Each compound was assayed against human Nav1.8 (Homo sapiens (Human), UniProt Q9Y5Y9) (assay: E-VIPR optical membrane potential assay with electrical stimulation). Conditions: HEK cells expressing human Nav1.8.
Format: cell-based
Description: Assays for Detecting and Measuring NaV Inhibition Properties of Compounds E-VIPR Optical Membrane Potential Assay Method with Electrical Stimulation
Sodium channels are voltage-dependent proteins that can be activated by inducing membrane voltage changes by applying electric fields. The electrical stimulation instrument and methods of use are described in Ion Channel Assay Methods PCT/US01/21652, herein incorporated by reference and are referred to as E-VIPR. The instrument comprises a microtiter plate handler, an optical system for exciting the coumarin dye while simultaneously recording the coumarin and oxonol emissions, a waveform generator, a current- or voltage-controlled amplifier, and a device for inserting electrodes in well. Under integrated computer control, this instrument passes user-programmed electrical stimulus protocols to cells within the wells of the microtiter plate.
24 hours before the assay on E-VIPR, HEK cells expressing human Nav1.8 were seeded in 384-well poly-lysine coated plates at 15,000-20,000 cells per well. HEK cells were grown in media (exact composition is specific to each cell type and NaV subtype) supplemented with 10% FBS (Fetal Bovine Serum, qualified; GibcoBRL #16140-071) and 1% Pen-Strep (Penicillin-Streptomycin; GibcoBRL #15140-122). Cells were grown in vented cap flasks, in 90% humidity and 5% CO2.
100 mg/mL Pluronic F-127 (Sigma #P2443), in dry DMSO
Compound Plates: 384-well round bottom plate, e.g. Corning 384-well Polypropylene Round Bottom #3656
Cell Plates: 384-well tissue culture treated plate, e.g. Greiner #781091-1B
Bath1 buffer: Glucose 10 mM (1.8 g/L), Magnesium Chloride (Anhydrous), 1 mM (0.095 g/L), Calcium Chloride, 2 mM (0.222 g/L), HEPES 10 mM (2.38 g/L), Potassium Chloride, 4.5 mM (0.335 g/L), Sodium Chloride 160 mM (9.35 g/L).
Hexyl Dye Solution: Bath1 Buffer+0.5% β-cyclodextrin (make this prior to use, Sigma #C4767), 8 μM CC2-DMPE+2.5 μM DiSBAC6(3). To make the solution added volume of 10% Pluronic F127 stock equal to volumes of CC2-DMPE+DiSBAC6(3). The order of preparation was first mix Pluronic and CC2-DMPE, then added DiSBAC6(3) while vortexing, then added Bath1+β-Cyclodextrin.
1) Pre-spotted compounds (in neat DMSO) into compound plates. Vehicle control (neat DMSO), the positive control (20 mM DMSO stock tetracaine, 125 μM final in assay) and test compounds were added to each well at 160× desired final concentration in neat DMSO. Final compound plate volume was 80 μL (80-fold intermediate dilution from 1 μL DMSO spot; 160-fold final dilution after transfer to cell plate). Final DMSO concentration for all wells in assay was 0.625%.
2) Prepared Hexyl Dye Solution.
3) Prepared cell plates. On the day of the assay, medium was aspirated and cells were washed three times with 100 μL of Bath1 Solution, maintaining 25 μL residual volume in each well.
4) Dispensed 25 μL per well of Hexyl Dye Solution into cell plates. Incubated for 20-35 minutes at room temp or ambient conditions.
5) Dispensed 80 μL per well of Bath1 into compound plates. Acid Yellow-17 (1 mM) was added and Potassium Chloride was altered from 4.5 to 20 mM depending on the NaV subtype and assay sensitivity.
6) Washed cell plates three times with 100 μL per well of Bath1, leaving 25 μL of residual volume. Then transfered 25 uL per well from Compound Plates to Cell Plates. Incubated for 20-35 minutes at room temp/ambient condition.
7) Read Plate on E-VIPR. Used the current-controlled amplifier to deliver stimulation wave pulses for 10 seconds and a scan rate of 200 Hz. A pre-stimulus recording was performed for 0.5 seconds to obtain the un-stimulated intensities baseline. The stimulatory waveform was followed by 0.5 seconds of post-stimulation recording to examine the relaxation to the resting state.
Data was analyzed and reported as normalized ratios of emission intensities measured in the 460 nm and 580 nm channels. The response as a function of time was reported as the ratios obtained using the following formula: […]

Chain of human Nav1.8 (Q9Y5Y9 whole entry): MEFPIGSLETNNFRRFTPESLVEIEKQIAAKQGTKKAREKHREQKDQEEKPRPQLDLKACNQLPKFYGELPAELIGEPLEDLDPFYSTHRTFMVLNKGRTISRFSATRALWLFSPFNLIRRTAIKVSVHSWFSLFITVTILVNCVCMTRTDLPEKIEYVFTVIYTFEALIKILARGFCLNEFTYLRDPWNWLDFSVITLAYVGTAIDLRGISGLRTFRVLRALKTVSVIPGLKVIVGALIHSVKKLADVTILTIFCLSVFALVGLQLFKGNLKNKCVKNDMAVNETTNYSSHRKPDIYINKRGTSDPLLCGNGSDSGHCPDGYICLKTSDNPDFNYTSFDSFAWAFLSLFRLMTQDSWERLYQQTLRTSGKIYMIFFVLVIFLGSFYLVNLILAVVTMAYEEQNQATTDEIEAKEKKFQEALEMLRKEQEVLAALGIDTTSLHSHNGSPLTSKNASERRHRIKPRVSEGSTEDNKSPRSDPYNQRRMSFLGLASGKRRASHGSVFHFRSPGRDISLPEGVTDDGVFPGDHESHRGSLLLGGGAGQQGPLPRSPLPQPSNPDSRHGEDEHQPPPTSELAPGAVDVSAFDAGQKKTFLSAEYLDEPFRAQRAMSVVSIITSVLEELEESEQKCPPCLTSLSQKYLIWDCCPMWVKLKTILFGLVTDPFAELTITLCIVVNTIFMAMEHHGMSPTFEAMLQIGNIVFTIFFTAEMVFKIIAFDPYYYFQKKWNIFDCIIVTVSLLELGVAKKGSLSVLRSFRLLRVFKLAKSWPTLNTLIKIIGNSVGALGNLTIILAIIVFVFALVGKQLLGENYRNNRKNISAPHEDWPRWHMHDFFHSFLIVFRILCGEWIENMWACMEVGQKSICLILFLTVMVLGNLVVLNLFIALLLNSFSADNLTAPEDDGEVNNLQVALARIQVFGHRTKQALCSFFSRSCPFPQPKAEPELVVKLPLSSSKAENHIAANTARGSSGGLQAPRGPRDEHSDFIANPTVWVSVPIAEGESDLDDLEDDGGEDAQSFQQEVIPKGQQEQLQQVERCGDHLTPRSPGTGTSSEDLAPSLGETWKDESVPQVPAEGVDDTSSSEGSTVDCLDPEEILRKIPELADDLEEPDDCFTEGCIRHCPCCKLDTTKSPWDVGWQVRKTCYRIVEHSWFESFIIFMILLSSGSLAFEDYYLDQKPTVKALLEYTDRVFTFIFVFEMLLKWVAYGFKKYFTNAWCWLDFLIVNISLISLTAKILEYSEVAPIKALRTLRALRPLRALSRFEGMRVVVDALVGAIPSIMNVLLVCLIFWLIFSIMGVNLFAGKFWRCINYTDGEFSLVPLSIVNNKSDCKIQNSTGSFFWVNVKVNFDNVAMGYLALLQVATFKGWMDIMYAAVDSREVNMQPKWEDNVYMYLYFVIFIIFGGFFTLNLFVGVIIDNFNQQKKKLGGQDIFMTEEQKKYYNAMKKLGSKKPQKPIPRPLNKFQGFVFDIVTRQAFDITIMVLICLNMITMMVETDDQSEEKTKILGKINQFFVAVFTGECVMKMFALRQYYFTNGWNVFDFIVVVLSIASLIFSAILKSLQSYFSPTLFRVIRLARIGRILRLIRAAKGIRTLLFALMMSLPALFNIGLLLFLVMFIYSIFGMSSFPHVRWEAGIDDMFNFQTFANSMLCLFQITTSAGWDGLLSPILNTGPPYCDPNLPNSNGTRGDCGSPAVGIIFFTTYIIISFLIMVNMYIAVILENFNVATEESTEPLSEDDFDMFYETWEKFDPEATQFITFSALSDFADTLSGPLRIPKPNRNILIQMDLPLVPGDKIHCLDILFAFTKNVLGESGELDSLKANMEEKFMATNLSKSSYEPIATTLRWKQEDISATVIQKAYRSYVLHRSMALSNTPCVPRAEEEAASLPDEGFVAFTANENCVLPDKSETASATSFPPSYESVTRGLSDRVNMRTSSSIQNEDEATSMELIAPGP

| SMILES | IC50 |
| --- | --- |
| COc1cc(F)ccc1Oc1cc(Cl)c(Cl)cc1C(=O)Nc1ccc(C(=O)O)cc1 [Compound 12, 4-(4,5-dichloro-2-(4-fluoro-2-methoxyphenoxy)benzamido)benzoic acid] | 11 nM |
| Cc1cc(F)ccc1Oc1ccc(C(F)(F)F)cc1C(=O)Nc1ccc(C(=O)O)cc1 [Compound 29, 4-(2-(4-fluoro-2-methylphenoxy)-5-(trifluoromethyl)benzamido)benzoic acid] | 245 nM |
| O=C(O)c1ccc(NC(=O)c2cc(Cl)c(Cl)cc2Oc2ccccc2)cc1 [Compound 15, 4-(4,5-dichloro-2-phenoxybenzamido)benzoic acid] | 290 nM |
| Cc1cc(Cl)ccc1Oc1cc(Cl)c(Cl)cc1C(=O)Nc1ccc(C(=O)O)nc1 [Compound 38, 5-(4,5-dichloro-2-(4-chloro-2-methylphenoxy)benzamido)picolinic acid] | 74 nM |
| COc1ccc(Oc2cc(Cl)c(Cl)cc2C(=O)Nc2ccc(C(=O)O)nc2)c(OC)c1 [Compound 39, 5-(4,5-dichloro-2-(2,4-dimethoxyphenoxy)benzamido)picolinic acid] | 15 nM |
| O=C(O)c1ccc(NC(=O)c2cc(Cl)c(Cl)cc2Oc2ccc(OC(F)(F)F)cc2)cn1 [Compound 44, 5-(4,5-dichloro-2-(4-(trifluoromethoxy)phenoxy)benzamido)picolinic acid] | 20 nM |
| O=C(O)c1ccc(NC(=O)c2cc(Cl)c(Cl)cc2Oc2ccc(OCC(F)(F)F)cc2)cn1 [Compound 35, 5-(4,5-dichloro-2-(4-(2,2,2-trifluoroethoxy)phenoxy)benzamido)picolinic acid] | 50 nM |
| O=C(O)c1ccc(NC(=O)c2ccc(C(F)(F)C(F)(F)F)cc2Oc2ccc(F)cc2F)cc1 [Compound 2, 4-(2-(2,4-difluorophenoxy)-4-(perfluoroethyl)benzamido)benzoic acid] | 32 nM |
| O=C(O)c1ccc(NC(=O)c2cc(Cl)c(Cl)cc2Oc2ccc(F)cc2Cl)cn1 [Compound 41, 5-(4,5-dichloro-2-(2-chloro-4-fluorophenoxy)benzamido)picolinic acid] | 12 nM |
| COc1ccc(Oc2ccc(C(F)(F)F)cc2C(=O)Nc2ccc(C(=O)O)nc2)c(OC)c1 [Compound 65, 5-(2-(2,4-dimethoxyphenoxy)-5-(trifluoromethyl)benzamido)picolinic acid] | 39 nM |
